Tested on: U87MG-luc3 human glioblastoma cells
Assay: Tumor growth inhibition in U87 MG mouse orthotopic model
Assay type: in vivo
Settings: for tumor growth inhibition: day 29
Description: U87MG-luc3 human glioblastoma cells were grown to mid-log phase in Eagle's Minimum Essential Medium containing 10% fetal bovine serum, 2 mM glutamine, 1× non-essential amino acids, 0.075% sodium bicarbonate, 1 mM sodium pyruvate, 100 units/mL sodium penicillin G, g/mL gentamicin, and 100 μg/mL streptomycin sulfate. The tumor cells were cultured in tissue culture flasks in a humidified incubator at 37° C., in an atmosphere of 5% CO2 and 95% air. Cells were cultured in 2 μg/mL puromycin until the second to last passage before implant, grown to mid-log phase and harvested. Post-implant verification of luciferase-expressing cells was performed by maintaining cells in culture for three passages after implant to ensure stable doubling time. Limiting dilution was used to verify and quantitate light production in the presence of luciferin. Cells were harvested at mid-log phase and resuspended at a concentration of 1×10^8 cells/mL in PBS. Each mouse (Female athymic nude mice (Crl:NU(NCr)-Foxn1nu, Charles River)) received an intracranial injection of 1×10^6 U87MG-luc3 cells (0.01 mL cell suspension) and tumor growth was monitored through whole body bioluminescent imaging. Four days post cell implant, designated as Day 1 of the study, the animals were sorted into five groups based on flux values before treatment starts. Ex. 11 or vehicle (0.5% Na CMC+0.5% Tween80) was administered orally BID. Ex. 11 was dosed at 10, 20 mg/kg BID and 50 mg/kg BID, 7-day on/7-day off for 22 days. Animals were continued to be observed to obtain overall survival data.
In Vivo bioluminescence images (dorsal) were captured to monitor tumor progression. Luciferase activity was measured in live animals using IVIS SpectrumCT (Perkin Elmer, Mass.) equipped with a CCD camera (cooled at −90° C.), mounted on a light-tight specimen chamber. Regions of interest were drawn around each mouse image, and flux was quantified and reported as 10^6 photons per second (p/s). For overall survival, animals were monitored individually to an endpoint of moribundity due to progression of systemic lymphoma. Full hind limb paralysis, severe ocular proptosis or moribundity all called for euthanasia.

[1] = 50 mg/kg BID oral, 7-day on/7-day off

Cc1ncnc2c1ccn2[C@@H]1O[C@H]([C@H](O)c2ccc3c(c2)CC3)[C@@H](O)[C@H]1O [Example 11, (2R,3S,4R,5R)-2-((R)-bicyclo[4.2.0]octa-1(6),2,4-trien-3-yl(hydroxy)methyl)-5-(4-methyl-7H-pyrrolo[2,3-d]pyrimidin-7-yl)tetrahydrofuran-3,4-diol]
median survival (10 mg/kg BID oral): 41 days
tumor growth inhibition (10 mg/kg BID oral): 10%
median survival (20 mg/kg BID oral): 37.5 days
tumor growth inhibition (20 mg/kg BID oral): 61%
median survival [1]: 39 days
tumor growth inhibition [1]: 85%

Source: US11524962B2, “Substituted pyrrolo[2,3-d]pyrimidines as inhibitors of protein arginine methyl transferase 5 (PRMT5)” (PRELUDE THERAPEUTICS, INCORPORATED, priority 2017, dated 2022)
